According to patent US10265294B2, “Compositions and methods for treating epithelial cancer” (YALE UNIVERSITY, priority 2016, dated 2019):

Legend:
[1] = tested on: OCSC2 (chemoresistant CD44+/MyD88+ ovarian cancer stem cell clone); test: Real-time measurement of cell number/cell death and IC50, OCSC2 clone; format: cell-based, human
Experimental: (§1) CD44+/MyD88+ ovarian cancer stem cell clones (OCSC1 and OCSC2) and CD44−/MyD88− ovarian cancer cells (OCC1 and OCC2) were isolated from either tumor tissue or ascites obtained from patients diagnosed with stage III/IV serous ovarian cancer and propagated (Alvero, et al., 2009, Cell Cycle 8:158-166; Chefetz, et al., 2013, Cell Cycle 12:511-521). The epithelial nature of the isolated cells was determined by immunostaining for Ck18. Purity of the cultures based on CD44 expression by flow cytometry and chemoresistance were routinely tested. Stable expression of nuclear-restricted red fluorescent (in OCSCs) or green fluorescent proteins (in OCCs) was performed by transduction using NUCLIGHT® Red or Green Lentivirus Reagent (Essen Bioscience, Ann Arbor, Mich.). Spheroids were formed from OCSCs by culturing in ultra-low attachment multi-well plates (Corning, Inc., Corning, N.Y.).
(§2) Effect of each compound on cell morphology, growth, and viability was assessed using a kinetic live cell imaging system (Incucyte, Essen Bioscience). Proliferation was calculated as previously described (Alvero, et al., 2011, Mol. Cancer Ther. 10:1385-1393) using metrics from either confluence or fluorescent count from nuclear-restricted RFP or GFP. Cell death was quantified; similarly CELLTOX® Green Cytotoxicity Assay (Promega, Madison, Wis.). IC50 was calculated as described using GraphPad Prism (GraphPad Software Inc., LaJolla, Calif.).
(§3) A panel of four different SBP subfamilies with cytotoxic activity against chemoresistant ovarian cancer stem cells were tested for efficacy in inducing ovarian cancer stem cell death. […] The efficacy of each analog was determined based on its IC50.
TRX-E-002 exists as a racemic mixture comprised of two enantiomers, enantiomer A (TRX-E-002-1) and enantiomer B (TRX-E-002-2). Thus, the enantiomers were separated and assessed separately. […]

[2] = tested on: OCSC1 (chemoresistant CD44+/MyD88+ ovarian cancer stem cell clone); test: Real-time measurement of cell number/cell death and IC50, OCSC1 clone; format: cell-based; conditions: Homo sapiens; screen of 40 SBP analogs, OCSC1 clone (FIG. 1A)
Experimental: CD44+/MyD88+ ovarian cancer stem cell clones (OCSC1 and OCSC2) and CD44−/MyD88− ovarian cancer cells (OCC1 and OCC2) were isolated from either tumor tissue or ascites obtained from patients diagnosed with stage III/IV serous ovarian cancer and propagated (Alvero, et al., 2009, Cell Cycle 8:158-166; Chefetz, et al., 2013, Cell Cycle 12:511-521). The epithelial nature of the isolated cells was determined by immunostaining for Ck18. Purity of the cultures based on CD44 expression by flow cytometry and chemoresistance were routinely tested. […]
as §2, §3

[3] = tested on: OCSCs (CD44+/MyD88+ ovarian cancer stem cells); test: OCSC growth, morphology, RFP+ cell count and Celltox cell death (kinetic live cell imaging); format: cell-based, human
Experimental: as §1, §2
In vitro, conventional chemotherapeutic drugs had negligible effect on OCSC growth even in the μM range (FIG. 1B).
TRX-E-002 exists as a racemic mixture comprised of two enantiomers, enantiomer A (TRX-E-002-1) and enantiomer B (TRX-E-002-2). Thus, the enantiomers were separated and assessed separately. To distinguish between an analog's cytostatic or cytotoxic activity, OCSC clones that are stably transfected with nuclear-restricted RFP were used, which allows an accurate quantification of the number of cells and can be multiplexed with CELLTOX® assay to concomitantly measure the number of dead cells.

[4] = tested on: chemoresistant ovarian cancer stem cells; test: OCSC growth and morphology with TRX-E-002-1, AICAR or the combination; format: cell-based, human
Experimental: The effect of each compound on cell growth was assessed using a kinetic live cell imagine system (Incucyte, Essen Bioscience). Proliferation was determined based on either confluence or fluorescent count from nuclear-restricted RFP or GFP. The IC50 values were calculated using GraphPad Prism (GraphPad Software Inc., LaJolla, Calif.). […]

[5] = tested on: co-culture of RFP-labeled OCSC2 and GFP-labeled OCC2; test: In vitro co-culture model 50% RFP-OCSC2 / 50% GFP-OCC2; format: cell-based; conditions: co-culture 50/50; TRX-E-002-1 0.12 μM, Cisplatin 20 μM
Experimental: as §1, §2
Without wishing to be limited by any theory, response to chemotherapy may be modified by cross-talk among different cancer cell types within the tumor. Thus, to mimic the heterogeneity of ovarian tumors an in vitro co-culture model consisting of RFP-labeled chemoresistant OCSC2 and GFP-labeled chemosensitive OCC2 was used. The co-cultures, which are comprised of 50% RFP-OCSC2 and 50% GFP-OCC2 at time of treatment, were exposed to TRX-E-002-1, cisplatin, or the combination of both. Since GFP-OCC2 has faster doubling time than RFP-OCSC2, it overtook the control co-cultures by the end of the experiment and thus the control co-cultures are mainly comprised of GFP-OCC2 by the 24 h time-point (FIG. 2B).

[6] = tested on: i.p. tumors of mCherry+OCSC1-F2 ovarian cancer cells; test: Recurrent disease xenograft, maintenance treatment after Paclitaxel; format: in vivo
Description: The Yale University Institutional Animal Care and Use Committee approved all in vivo studies described. Intra-peritoneal tumors were established in athymic nude mice using 4×10^6 mCherry+OCSC1-F2 ovarian cancer cells (Craveiro, et al., 2013, Cancer Med. 2:751-762). Injection of cancer cells is designated as day 0 and treatment commenced between day 3-5. Establishment of i.p. tumors was confirmed by live imaging (In-Vivo FX PRO, Bruker Corp., Billerica, Mass.) prior to treatment. TRX-E-002-1 was prepared in 20% Captisol or Dexsolve and administered daily at 50 mg/kg or 100 mg/kg. Paclitaxel was given at 12 mg/kg q3d and Cisplatin at 5 mg/kg weekly. All treatments were given i.p. Tumor growth was monitored q3d by live imaging and response to treatment was assessed using ROI area.
Although the standard of care for ovarian cancer patients (platinum plus taxane) is effective initially, most patients develop recurrent disease. Recurrence is the major cause of mortality in ovarian cancer patients, and thus approaches that can prevent recurrence are critical to improve patient survival. As described elsewhere herein, a unique advantage of the xenograft model is the recapitulation of recurrent disease that is typically observed in patients with ovarian cancer. […] Upon recurrence, tumors acquire resistance and become unresponsive to a second-round of Paclitaxel regimen, as observed in ovarian cancer patients. Thus, the model allows one to assess the value of novel compounds in preventing recurrence when given as maintenance treatment.
Thus mice were given Paclitaxel as initial treatment. […] After the 4th dose of Paclitaxel mice were re-randomized into the different maintenance groups. Here the maintenance protocol consisted of continued treatment with Paclitaxel, or maintenance with TRX-E-002-1 (100 mg/kg), or maintenance with Vehicle control.

[7] = tested on: ERK; test: Phosphokinase array / Western blot for phosphorylated ERK in OCSCs; format: cell-based, human; conditions: U0126 10 μM, 2 hours; comparable to levels induced by TRX-E-002-1
Experimental: SDS-PAGE and Western blots were performed using 20 μg of total protein lysate as described in Kamsteeg, et al., 2003, Oncogene 22:2611-2620. Antibodies used were: mouse anti-phospho ERK (Santa Cruz Biotechnology, Inc., Dallas, Tex.); rabbit anti-phospho c-Jun, rabbit anti c-Jun, rabbit anti-ERK, rabbit anti-cleaved caspase 3 all from Cell Signaling Technology, Danvers, Mass.; and mouse anti-GAPDH (Sigma-Aldrich).
In order to elucidate the early pathways responsible for the sustained cytotoxic effect observed with TRX-E-002-1, a phosphokinase array was performed. The phosphokinase array detected relative phosphorylation levels of 43 different kinases involved in major signal transduction pathways.
The western blot results also validated the decrease in p-ERK in cells treated with TRX-E-002-1. […] The effect on the phosphorylation status of the kinases (upregulation of p-cJun and downregulation of p-ERK) was observed as early as 2 h post-treatment and maintained up to 24 h (FIG. 4A). The phosphorylation levels of c-Jun and ERK correlate with the differential ability of the two doses of TRX-E-002-1 to induce a sustained cytotoxic effect. […] This correlates with the ability of this dose of TRX-E-002-1 to maintain the upregulation of p-cJun and downregulation of p-ERK even when the compound is removed (FIG. 4B). […]

[8] = tested on: OCSCs; test: Cell death of OCSCs with JNK or ERK pathway inhibitor; format: cell-based, human; conditions: U0126 10 μM, 24 hour time-point
Experimental: as §2
Jun N-terminal kinase (JNK) is a stress-activated protein kinase and the main kinase that phosphorylates c-Jun. To determine whether the JNK/Jun pathway is involved in TRX-E-002-1-induced cell death, the JNK inhibitor SP600125 (1,9-Pyrazoloanthrone; a reversible ATP competitive inhibitor selective for JNK 1, 2, and 3) was used. Cells were treated with TRX-E-002-1 in the presence or absence of SP600125.
To determine the importance of downregulating the levels of p-ERK, cells were treated with U0126 (1,4-diamino-2,3-dicyano-1,4-bis(2-aminophenylthio)butadiene) to recapitulate the effect of TRX-E-002-1 on the ERK pathway.

Structure (SMILES): COc1cc(C2COc3c(ccc(O)c3C)C2c2ccc(O)cc2)cc(OC)c1O (racemic) [TRX-E-002, 3-(4-hydroxy-3,5-dimethoxyphenyl)-4-(4-hydroxyphenyl)-8-methylchroman-7-ol]
- IC50 ([1]; Homo sapiens, screen of 40 SBP analogs, OCSC2 clone (FIG. 1A)): < 0.245 µM
- IC50 [2]: < 0.245 µM
- apoptotic cells by microscopic evaluation of the cultures ([3]; 24 hours, compared with Cisplatin or Paclitaxel treated cultures): higher percentage of apoptotic cells
- effect on OCSC growth ([3]; chemotherapeutic drugs even in the μM range, TRX-E-002 at low concentrations): persistent growth inhibitory effect

Structure (SMILES): COc1cc(C2COc3c(ccc(O)c3C)C2c2ccc(O)cc2)cc(OC)c1O (single isomer, unassigned) [TRX-E-002-2]
- IC50 ([1]; OCSC2, 24 hours (FIG. 1G)): 10 µM
- number of nuclear RFP+ cells ([3]; RFP OCSC clones, TRX-E-002-1 beginning at the 0.245 μM dose, TRX-E-002-2 except for the very high dose of 10 μM): mostly ineffective

Structure (SMILES): NC(=O)c1ncn([C@@H]2O[C@H](CO)[C@@H](O)[C@H]2O)c1N [AICAR, 5-aminoimidazole-4-carboxamide-1-β-D-ribofuranoside, reference compound]
- cell morphology / apoptotic cells ([4]; 48 hours, AICAR at 0.2 mM): no effect
- effect on cell growth ([4]; TRX-E-002-1 25 ng/ml, mono therapies or combination): minimal effect

Structure (SMILES): N.N.[Cl][Pt][Cl] [Cisplatin, reference compound]
- number of GFP+ cells (GFP-OCC2) [5]: decrease
- number of mCherry+ cells (RFP-OCSC2) [5]: no effect

Structure (SMILES): CC(=O)O[C@H]1C(=O)[C@@]2(C)[C@H]([C@H](OC(=O)c3ccccc3)[C@]3(O)C[C@H](OC(=O)[C@H](O)[C@@H](NC(=O)c4ccccc4)c4ccccc4)C(C)=C1C3(C)C)[C@]1(OC(C)=O)CO[C@@H]1C[C@@H]2O [Paclitaxel, reference compound]
- tumor progression during initial treatment ([6]; Paclitaxel 4 doses at 12 mg/kg i.p.): significant delay in tumor progression
- tumor progression during maintenance treatment ([6]; after 4th dose of Paclitaxel, TRX-E-002-1 100 mg/kg daily i.p. or continued Paclitaxel): tumor progression was observed
- gross examination of residual disease ([6]; maintenance groups): visible carcinomatosis and extensive metastasis
- tumor weights at end point compared to control ([6]; maintenance groups): not

Structure (SMILES): N#CC(=C(N)Sc1ccccc1N)C(C#N)=C(N)Sc1ccccc1N [U0126, 1,4-diamino-2,3-dicyano-1,4-bis(2-aminophenylthio)butadiene, reference compound]
- levels of p-ERK [7]: downregulated
- effect on cell death relative to TRX-E-002-1 [8]: not comparable
